Results as given in the NIST ThermoML archive (doi:10.1016/j.jct.2005.10.007).

Test: mn = molality of the nth substance listed, in mol/kg
Settings: 350 kPa, Liquid, Extra sensitive DSC

C[C@H](N)C(=O)O [(S)-2-aminopropanoic acid] + O
apparent molar heat capacity [J/K/mol]
Settings | m1 = 0.0152 | m1 = 0.0299 | m1 = 0.05 | m1 = 0.08 | m1 = 0.1247 | m1 = 0.2493 | m1 = 0.5149 | m1 = 1.002
278.15 K | 107 | 137 | 101.3 | 106 | 107 | 113.3 | 122.6 | 118.5
283.15 K | 119 | 148 | 113.2 | 117.9 | 118.8 | 124.8 | 133.2 | 128.7
288.15 K | 131 | 156 | 123.3 | 127.8 | 128.9 | 134.4 | 142 | 137.2
293.15 K | 143 | 163 | 131.5 | 136 | 137.4 | 142.4 | 149.5 | 144.3
298.15 K | 152 | 170 | 138.2 | 142.8 | 144.2 | 149.1 | 155.6 | 150.2
303.15 K | 158 | 174 | 143.9 | 148.7 | 150.3 | 154.9 | 160.8 | 155.5
308.15 K | 163 | 178 | 148.9 | 153.7 | 155.4 | 159.8 | 165.3 | 159.8
313.15 K | 169 | 182 | 153.6 | 158 | 159.9 | 164.1 | 169.3 | 163.8
318.15 K | 172 | 185 | 157.3 | 161.6 | 163.9 | 167.7 | 172.6 | 167.1
323.15 K | 175 | 188 | 160.9 | 164.9 | 167.3 | 170.9 | 175.5 | 170
328.15 K | 178 | 190 | 163.7 | 167.7 | 170.3 | 173.6 | 178 | 172.5
333.15 K | 181 | 192 | 166.4 | 170.2 | 173 | 176.1 | 180.3 | 174.8
338.15 K | 184 | 194 | 168.8 | 172.4 | 175.4 | 178.3 | 182.3 | 176.9
343.15 K | 187 | 196 | 170.7 | 174.2 | 177.3 | 180.1 | 183.9 | 178.6
348.15 K | 188 | 197 | 172.4 | 175.9 | 178.9 | 181.7 | 185.3 | 180.1
353.15 K | 190 | 198 | 174 | 177.4 | 180.5 | 183.1 | 186.6 | 181.4
358.15 K | 191 | 199 | 175.2 | 178.5 | 181.6 | 184.3 | 187.6 | 182.5
363.15 K | 192 | 199 | 176.1 | 179.4 | 182.5 | 185.1 | 188.4 | 183.5
368.15 K | 192 | 200 | 176.6 | 180.1 | 183.3 | 185.8 | 189 | 184.2
373.15 K | 192 | 200 | 177.1 | 180.5 | 183.7 | 186.2 | 189.4 | 184.8
378.15 K | 192 | 200 | 177.2 | 180.6 | 183.8 | 186.4 | 189.5 | 185.1
383.15 K | 192 | 200 | 177.1 | 180.7 | 183.9 | 186.4 | 189.6 | 185.4
388.15 K | 192 | 199 | 176.8 | 180.3 | 183.6 | 186.2 | 189.4 | 185.5
393.15 K | 190 | 200 | 176.6 | 179.8 | 183.1 | 185.8 | 189.2 | 185.5
